The values below come from US6287827A, “Halo- or hydroxy-substituted nocathiacin antibiotics” (Bristol-Myers Squibb Company, priority 2000, dated 2001).

Holding throughout (test): MIC, conventional serial broth dilution assay in nutrient broth (Difco)
Holding throughout (assay type): cell-based
(In broth dilution the organism is exposed to a series of concentrations in liquid medium.)

Assay [1] deals with Enterococcus faecalis A27519.
Assay [2] deals with Enterococcus avium A27456.
Assay [3] relates to Staphylococcus epidermidis A24548.
For assay [4], the system named is Moraxella catarrhalis/β-lactamase positive A25409.
Assay [5] has as its system Staphylococcus haemolyticus A27298.
Assay [6] deals with Streptococcus pneumoniae/penicillin resistant A28272.
Assay [7] concerns Moraxella catarrhalis/β-lactamase positive A22344.
The subject of assay [8] is Staphylococcus aureus/homo methicillin resistant A27223.
In assay [9] the test system is Streptococcus pneumoniae A9585.
Assay [10] concerns Enterococcus faecium A24885.
For assay [11], the system named is Staphylococcus aureus/β-lactamase positive A15090.
The test system of assay [12] is Streptococcus pneumoniae/penicillin intermediate A27881.
The subject of assay [13] is Enterococcus faecalis A20688.
In assay [14] the test system is Staphylococcus aureus/QC/ATCC #29213 A24407. The conditions noted are these: ATCC29213.
For assay [15], the system named is Staphylococcus aureus/Thiostrep. Res/Mutant A9497.
Assay [16] deals with Staphylococcus aureus/209P/ATCC #6538P A9497.
In assay [17] the test system is Bacillus subtilis/ATCC #6633 A9506A. The conditions noted are these: ATCC6633.
Assay [18] relates to Haemophilus influenzae/β-lactamase negative A20191.
Assay [19] relates to Bacillus subtilis/Thiostrep. Res/Mutant A9506A.
Assay [20] concerns Haemophilus influenzae/β-lactamase positive A21515.
Where [21] appears, read: Staphylococcus aureus A27223 + 50% calf serum.
[22] abbreviates: Staphylococcus aureus/homo methicillin resistant A27223.
Where [23] appears, read: Staphylococcus aureus A15090 + 50% calf serum.
[24] abbreviates: Staphylococcus aureus/β-lactamase positive A15090.
Setting [25] is: A20688, Enterococcus faecalis A20688.
Setting [26] is: A20688, Enterococcus faecalis A20688 +50% calf serum.

Values after ≈ are worked out from the molar mass of the structure shown.

Turning to `C=C(NC(=O)c1csc(-c2nc3c(cc2O)-c2nc(cs2)C(=O)NC(C(C)O)C(=O)NC(=C(C)OC)c2nc(cs2)C(=O)NC2c4nc(cs4)C(=O)NC(COC(=O)c4c5c6c(c(F)ccc6n4O)COC(=O)C(OC4CC(C)(O)C(N(C)C)C(C)O4)C2OC5)c2nc-3cs2)n1)C(N)=O` (stereo not shown) [5-Fluoronocathiacin, 5-fluoronocathiacin], the MIC in assay [1] was 0.25 µg/mL (≈ 172 nM); in assay [2] it was 0.25 µg/mL (≈ 172 nM); in assay [3] it was 0.007 µg/mL (≈ 4.81 nM); in assay [4] it was 0.06 µg/mL (≈ 41.2 nM); in assay [5], 0.003 µg/mL (≈ 2.06 nM); in [6] it was no more than 0.002 µg/mL. Moreover, the MIC in assay [7] is 0.06 µg/mL (≈ 41.2 nM); in [8] (setting [21]), 0.003 µg/mL; in assay [8] (setting [22]), 0.003 µg/mL (≈ 2.06 nM); in [9], no more than 0.002 µg/mL; in assay [10], 0.25 µg/mL (≈ 172 nM); in assay [11] (setting [23]) it was 0.125 µg/mL. Besides, the MIC in assay [11] (setting [24]) is 0.125 µg/mL (≈ 85.9 nM); in [12] it was no more than 0.002 µg/mL; in assay [13] (setting [25]), 0.25 µg/mL (≈ 172 nM); in assay [13] (setting [26]), 0.25 µg/mL (≈ 172 nM); in assay [14], 0.125 µg/mL (≈ 85.9 nM).
In the case of `C=C(NC(=O)c1csc(-c2nc3c(cc2O)-c2nc(cs2)C(=O)NC(C(C)O)C(=O)NC(=C(C)OC)c2nc(cs2)C(=O)NC2c4nc(cs4)C(=O)NC(COC(=O)c4c5c6c(cc(F)cc6n4O)COC(=O)C(OC4CC(C)(O)C(N(C)C)C(C)O4)C2OC5)c2nc-3cs2)n1)C(N)=O` (stereo not shown) [6-Fluoronocathiacin, 6-fluoronocathiacin], the MIC in [15] is 16 µg/mL (≈ 11000 nM); in assay [16], 0.002 µg/mL (≈ 1.37 nM); in assay [3] it was 0.004 µg/mL (≈ 2.75 nM); in [17] it was 0.002 µg/mL (≈ 1.37 nM); in assay [18], greater than 16 µg/mL; in assay [19] it was greater than 32 µg/mL. Also, the MIC is 0.004 µg/mL (≈ 2.75 nM) in assay [5]; less than 0.0005 µg/mL in assay [6]; 0.25 µg/mL (≈ 172 nM) in [7]; 0.015 µg/mL in [8] (setting [21]); 0.002 µg/mL (≈ 1.37 nM) in assay [8] (setting [22]); less than 0.0005 µg/mL in assay [9]. The MIC in [10] was 0.004 µg/mL (≈ 2.75 nM); in assay [11] (setting [23]), 0.015 µg/mL; in assay [11] (setting [24]) it was 0.002 µg/mL (≈ 1.37 nM); in [12] it was less than 0.0005 µg/mL; in assay [13] (setting [25]) it was less than 0.001 µg/mL; in [13] (setting [26]), 0.015 µg/mL (≈ 10.3 nM). Moreover, the MIC in assay [14] is 0.002 µg/mL (≈ 1.37 nM); in [20], greater than 16 µg/mL.
